Target: T1, FPR1 (Homo sapiens, UniProt P21462)
T1 construct: endogenous in cells; host or cells: freshly isolated human neutrophils (PMNs), migrating across a T84 epithelial monolayer
T1 sequence (P21462 1-350): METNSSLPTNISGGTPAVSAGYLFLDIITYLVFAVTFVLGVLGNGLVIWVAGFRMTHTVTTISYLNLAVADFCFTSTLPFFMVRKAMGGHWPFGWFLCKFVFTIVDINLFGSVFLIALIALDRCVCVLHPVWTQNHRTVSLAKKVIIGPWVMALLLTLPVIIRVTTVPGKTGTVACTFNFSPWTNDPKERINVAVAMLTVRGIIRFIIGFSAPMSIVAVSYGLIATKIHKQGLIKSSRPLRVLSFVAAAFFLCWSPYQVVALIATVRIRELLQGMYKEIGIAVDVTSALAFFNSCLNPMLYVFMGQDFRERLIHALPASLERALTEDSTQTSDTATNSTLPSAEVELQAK
Experiment: Inhibition of FPR1 measured as inhibition of fMLP-induced neutrophil transmigration across T84 monolayer
Assay type: cell-based
Conditions: FIG. 3B
Experimental: T84 colorectal cancer cells were grown to confluence on the bottom side of 12 well polycarbonate membrane inserts of a 24 well Transwell® plate. The confluent growth of these epithelial cells results in physiologically-relevant apical (luminal) and basolateral surfaces in the transwells. Freshly isolated and prepared human neutrophils were pretreated in compound (BT051 or cyclosporine A) for 1 hour on ice.
BT051 or cyclosporine A was added to the apical surface of the monolayer. The potent neutrophil chemoattractant, N-formyl-methionyl-leucyl-phenylalanine (fMLP) (100 nM), which activates neutrophil migration via its interaction with the FPR1 protein on neutrophils, was also added to the apical side of the monolayer. The compound-treated neutrophils were then added to the basolateral side and allowed to transmigrate through the monolayer for 2 hours. The number of neutrophils migrated to the apical chamber (due to the fMLP gradient) was then assayed by determination of myeloperoxidase activity (a neutrophil biomarker). Inhibition of transmigration is indicated by lower MPO activity in the apical chamber.
T84 colorectal cancer cells are grown to confluence on the bottom side of 12 well polycarbonate membrane inserts of a 24 well Transwell® plate. The confluent growth of these epithelial cells results in physiologically-relevant apical (luminal) and basolateral surfaces in the transwells. […]

CC[C@@H]1NC(=O)[C@H]([C@H](O)[C@H](C)CCCCCC(=O)O)N(C)C(=O)[C@H](C(C)C)N(C)C(=O)[C@H](CC(C)C)N(C)C(=O)[C@H](CC(C)C)N(C)C(=O)[C@@H](C)NC(=O)[C@H](C)NC(=O)[C@H](CC(C)C)N(C)C(=O)[C@H](C(C)C)NC(=O)[C@H](CC(C)C)N(C)C(=O)CN(C)C1=O [BT070]
inhibition of PMN transmigration/activation (concentration not given): approximately 50% | fMLP-mediated PMN transmigration/activation (result in words): inhibit

From patent US20240277798A1, “CYCLOSPORINE COMPOSITIONS AND METHODS OF USE” (Bacainn Biotherapeutics, Ltd., priority 2021, published 2024)
